Test results taken from ChEMBL document CHEMBL4118101 (Bioorg Med Chem, 2018).
Values after ≈ are worked out from the molar mass of the structure shown. Active and inactive are the calls of the source. No cut-off for these calls is given here.

Key:
[1] = test system: Pichia kudriavzevii; assay: Antifungal activity against Candida krusei ATCC 6258 measured after 48 hrs by CLSI M27-A3 protocol based method; type: functional; conditions: for MIC: Pichia kudriavzevii, ATCC 6258, 48 h
[2] = test system: Aspergillus flavus; assay: Antifungal activity against Aspergillus flavus ATCC MYA-3631 measured after 48 hrs by CLSI M38-A2 protocol based method; type: functional; conditions: ATCC MYA-3631, 48 h
[3] = test system: Cryptococcus neoformans; assay: Antifungal activity against Cryptococcus neoformans isolate CN3 measured after 48 hrs by CLSI M27-A3 protocol based method; type: functional
[4] = test system: Nakaseomyces glabratus; assay: Antifungal activity against Candida glabrata isolate CG3 measured after 48 hrs by CLSI M27-A3 protocol based method; type: functional
[5] = test system: Aspergillus nidulans; assay: Antifungal activity against Aspergillus nidulans ATCC 38163 measured after 48 hrs by CLSI M38-A2 protocol based method; type: functional; conditions: ATCC 38163, 48 h
[6] = test system: Nakaseomyces glabratus; assay: Antifungal activity against Candida glabrata ATCC 2001 measured after 48 hrs by CLSI M27-A3 protocol based method; type: functional, CBS 138
[7] = test system: Candida albicans; assay: Antifungal activity against Candida albicans ATCC 10231 measured after 48 hrs by CLSI M27-A3 protocol based method; type: functional; conditions: ATCC 10231, 48 h
[8] = test system: Candida albicans; assay: Antifungal activity against fluconazole/ITC-susceptible Candida albicans ATCC MYA-2876 measured after 48 hrs by CLSI M27-A3 protocol based method; type: functional; conditions: for MIC: Candida albicans, ATCC MYA-2876, 48 h
[9] = test system: Candida albicans; assay: Antifungal activity against Candida albicans ATCC 64124 measured after 48 hrs by CLSI M27-A3 protocol based method; type: functional
[10] = test system: Cryptococcus neoformans; assay: Antifungal activity against Cryptococcus neoformans isolate CN1 measured after 48 hrs by CLSI M27-A3 protocol based method; type: functional; conditions: isolate CN1, 48 h
[11] = test system: Aspergillus terreus; assay: Antifungal activity against Aspergillus terreus ATCC MYA-3633 measured after 48 hrs by CLSI M38-A2 protocol based method; type: functional; conditions: ATCC MYA-3633, 48 h
[12] = test system: Cryptococcus neoformans; assay: Antifungal activity against Cryptococcus neoformans isolate CN2 measured after 48 hrs by CLSI M27-A3 protocol based method; type: functional
[13] = test system: Nakaseomyces glabratus; assay: Antifungal activity against Candida glabrata isolate CG1 measured after 48 hrs by CLSI M27-A3 protocol based method; type: functional
[14] = test system: Nakaseomyces glabratus; assay: Antifungal activity against Candida glabrata isolate CG2 measured after 48 hrs by CLSI M27-A3 protocol based method; type: functional
[15] = test system: Candida parapsilosis; assay: Antifungal activity against Candida parapsilosis isolate CP2 measured after 48 hrs by CLSI M27-A3 protocol based method; type: functional; conditions: for MIC: Lodderomyces parapsilosis, isolate CP2, 48 h
[16] = test system: Candida albicans; assay: Antifungal activity against fluconazole/ITC-susceptible Candida albicans ATCC MYA-2310 measured after 48 hrs by CLSI M27-A3 protocol based method; type: functional
[17] = test system: Candida parapsilosis; assay: Antifungal activity against Candida parapsilosis ATCC 22019 measured after 48 hrs by CLSI M27-A3 protocol based method; type: functional; conditions: for MIC: Lodderomyces parapsilosis, ATCC 22019, 48 h
[18] = test system: Candida albicans; assay: Antifungal activity against fluconazole/ITC-resistant Candida albicans ATCC MYA-1003 measured after 48 hrs by CLSI M27-A3 protocol based method; type: functional; conditions: Candida albicans, ATCC MYA-1003, 48 h; read-out: MIC
[19] = test system: Candida albicans; assay: Antifungal activity against fluconazole/ITC-resistant Candida albicans ATCC 90819 measured after 48 hrs by CLSI M27-A3 protocol based method; type: functional
[20] = test system: Candida albicans; assay: Antifungal activity against fluconazole/ITC-resistant Candida albicans ATCC MYA-1237 measured after 48 hrs by CLSI M27-A3 protocol based method; type: functional; conditions: Candida albicans, ATCC MYA-1237, 48 h; read-out: MIC
[21] = test system: Candida parapsilosis; assay: Antifungal activity against Candida parapsilosis isolate CP1 measured after 48 hrs by CLSI M27-A3 protocol based method; type: functional; conditions: for MIC: Lodderomyces parapsilosis, isolate CP1, 48 h
[22] = test system: Candida parapsilosis; assay: Antifungal activity against Candida parapsilosis isolate CP3 measured after 48 hrs by CLSI M27-A3 protocol based method; type: functional; conditions: for MIC: Lodderomyces parapsilosis, isolate CP3, 48 h
[23] = test system: Candida albicans; assay: Induction of membrane permeabilization in Candida albicans ATCC 10231 assessed as membrane disruption at 4 times MIC after 1 hr by propidium iodide staining based fluorescence microscopy; type: functional, organism-based
[24] = Cryptococcus neoformans, isolate CN3, 48 h, read-out: MIC
[25] = Nakaseomyces glabratus, 48 h, read-out: MIC
[26] = Nakaseomyces glabratus, CBS 138, 48 h, read-out: MIC
[27] = Candida albicans, ATCC 64124, 48 h, read-out: MIC
[28] = Cryptococcus neoformans, isolate CN2, 48 h, read-out: MIC
[29] = Nakaseomyces glabratus, isolate CG2, 48 h, read-out: MIC
[30] = Candida albicans, ATCC MYA-2310, 48 h, read-out: MIC
[31] = Candida albicans, ATCC 90819, 48 h, read-out: MIC

Structure (SMILES) | MIC [1] [µM] | MIC [2] [µM] | MIC [3, 24] [µM] | MIC [4, 25] [µM] | MIC [5] [µM] | MIC [6, 26] [µM] | MIC [7] [µM] | MIC [8] [µM] | MIC [9, 27] [µM] | MIC [10] [µM] | MIC [11] [µM] | MIC [12, 28] [µM] | MIC [13, 25] [µM] | MIC [14, 29] [µM] | MIC [15] [µM] | MIC [16, 30] [µM] | MIC [17] [µM] | MIC [18] [µM] | MIC [19, 31] [µM] | MIC [20] [µM] | also measured
CC(C)c1ccc(NCC(O)(Cn2cncn2)c2ccc(F)cc2F)cc1 (centres undefined) | > 84 | 84 (≈ 31.3 µg/mL) | > 84 | 20.9 (≈ 7.78 µg/mL) | 20.9 (≈ 7.78 µg/mL) | 20.9 to 84 (≈ 7.78 to 31.3 µg/mL) | > 84 | > 84 | > 84 | 20.9 (≈ 7.78 µg/mL) | 41.9 (≈ 15.6 µg/mL) | 84 (≈ 31.3 µg/mL) | 20.9 (≈ 7.78 µg/mL) | 20.9 (≈ 7.78 µg/mL) | 10.5 (≈ 3.91 µg/mL) | 84 (≈ 31.3 µg/mL) | 20.9 (≈ 7.78 µg/mL) | 84 (≈ 31.3 µg/mL) | 84 (≈ 31.3 µg/mL) | 84 (≈ 31.3 µg/mL) | MIC [21]: 10.5 µM (≈ 3.91 µg/mL); MIC [22]: 10.5 µM (≈ 3.91 µg/mL)
OC(Cn1cncn1)(Cn1cncn1)c1ccc(F)cc1F [FLUCONAZOLE] | – | – | – | – | – | – | – | – | – | – | – | – | – | – | – | – | – | – | – | – | MIC=<50 [1]: >102.2 µM; MIC [3]: >102.1 µM; MIC [4]: >102.1 µM; MIC [6]: >=102.2 - 204.1 uM; MIC=<50 [8]: 50.9 µM (≈ 15.6 µg/mL); MIC [9]: >408.1 µM; MIC [12]: >102.1 µM; MIC [13]: >102.1 µM; MIC [14]: >102.1 µM; MIC=<50 [15]: 3.2 µM (≈ 0.98 µg/mL); MIC [16]: >408.1 µM; MIC=<50 [17]: 6.4 µM (≈ 1.96 µg/mL); MIC [19]: >408.1 µM; MIC=<50 [21]: 3.2 µM (≈ 0.98 µg/mL); MIC=<50 [22]: 3.2 µM (≈ 0.98 µg/mL)
CCCCCCNCC(O)(Cn1cncn1)c1ccc(F)cc1F (centres undefined) | 23 (≈ 7.78 µg/mL) | > 92.3 | 92.3 (≈ 31.2 µg/mL) | 92.3 (≈ 31.2 µg/mL) | > 92.3 | 23 to 46.1 (≈ 7.78 to 15.6 µg/mL) | 23 (≈ 7.78 µg/mL) | 46.1 (≈ 15.6 µg/mL) | > 92.3 | 23 (≈ 7.78 µg/mL) | > 92.3 | > 92.3 | 92.3 (≈ 31.2 µg/mL) | 23 (≈ 7.78 µg/mL) | 2.9 (≈ 0.981 µg/mL) | 92.3 (≈ 31.2 µg/mL) | 2.9 (≈ 0.981 µg/mL) | 92.3 (≈ 31.2 µg/mL) | 92.3 (≈ 31.2 µg/mL) | > 92.3 | Activity [23]: inactive; MIC [21]: 2.9 µM (≈ 0.981 µg/mL); MIC [22]: 2.9 µM (≈ 0.981 µg/mL)
CC[C@H](C)C[C@H](C)CCCCCCCCC(=O)N[C@H]1C[C@@H](O)[C@@H](NCCN)NC(=O)[C@@H]2[C@@H](O)CCN2C(=O)[C@H]([C@H](O)CCN)NC(=O)[C@H]([C@H](O)[C@@H](O)c2ccc(O)cc2)NC(=O)[C@@H]2C[C@@H](O)CN2C(=O)[C@H]([C@@H](C)O)NC1=O [CASPOFUNGIN] | 0.4 (≈ 0.437 µg/mL) | > 25.8 | 12.9 (≈ 14.1 µg/mL) | 0.8 (≈ 0.875 µg/mL) | > 25.8 | 0.05 (≈ 0.0547 µg/mL) | 0.8 (≈ 0.875 µg/mL) | 0.05 (≈ 0.0547 µg/mL) | 0.2 (≈ 0.219 µg/mL) | 12.9 (≈ 14.1 µg/mL) | > 25.8 | 25.8 (≈ 28.2 µg/mL) | 1.6 (≈ 1.75 µg/mL) | 0.2 (≈ 0.219 µg/mL) | 0.4 (≈ 0.437 µg/mL) | 0.1 (≈ 0.109 µg/mL) | 1.6 (≈ 1.75 µg/mL) | 0.4 (≈ 0.437 µg/mL) | 0.1 (≈ 0.109 µg/mL) | 0.2 (≈ 0.219 µg/mL) | MIC [21]: 0.4 µM (≈ 0.437 µg/mL); MIC [22]: 0.4 µM (≈ 0.437 µg/mL)
OCCCCCCNCC(O)(Cn1cncn1)c1ccc(F)cc1F (centres undefined) | > 88.3 | > 88.3 | > 88.3 | > 88.3 | > 88.3 | > 88.3 | > 88.3 | 88.3 (≈ 31.3 µg/mL) | > 88.3 | > 88.3 | > 88.3 | > 88.3 | > 88.3 | > 88.3 | 88.3 (≈ 31.3 µg/mL) | > 88.3 | > 88.3 | > 88.3 | 88.3 (≈ 31.3 µg/mL) | > 88.3 | MIC [21]: 88.3 µM (≈ 31.3 µg/mL); MIC [22]: 88.3 µM (≈ 31.3 µg/mL)
